In patent US20260232668A1 (Kadmon Corporation, LLC, priority 2023, published 2026):
“Also recorded” adds a separate entry of the source. Like-named read-outs stand apart in the source and are kept apart here.

Key:
[1] = system: murine model of sclerodermatous chronic graft-versus-host disease (GVHD); conditions: for survival: PO Days 21-55: belumosudil 125 mg/kg Days 21-32 then 100 mg/kg, ibrutinib 20 mg/kg, rilzabrutinib 40 mg/kg BID, vehicle 91.7%
[2] = system: B cells (CD20+) in human whole blood; assay: anti-CD79b-mediated B-cell activation in human whole blood (CD69 on CD20+ B cells, flow cytometry); type: cell-based; conditions: anti-CD79b stimulation
Description: Flow cytometric analyses were conducted using BD LSRFortessa™ Cell Analyzer (BD Biosciences) and the data analyzed by FlowJo (BD Biosciences). B-cell activation is determined by an increase in surface expression of activation marker CD69 on B cells (CD20+) following anti-CD79b stimulation. The experiment was conducted in duplicate.

[3] = system: sclerodermatous chronic GVHD model; assay: Example 2: mouse model of sclerodermatous chronic GVHD, single agents; type: in vivo
Description: Animals were not replaced during the course of the study. Mice were handled in accordance with standard conventional procedures. Animals were acclimatized for a minimum of 3 days prior to study commencement. […] The study was performed in animal rooms provided with filtered air at a temperature of 70±5° F. and 50% 20% relative humidity and an automatic timer for a light/dark cycle of 12 hours on and 12 hours off with no twilight.
On Day 0, a combination of bone marrow cells and splenocytes were transferred from donor LP/J mice to the recipients, as indicated in Table 2. […] The BM cells were isolated using standard flushing practices. […] All animals were monitored daily, and weight, survival, and disease progression were recorded following the scoring system described in Table 4.
On Day 20, animals were redistributed into groups so that the average scGVHD score was similar across all groups. Treatment was initiated on Day 21 and continued until Day 55. All dosing was performed BID to control for stress associated with oral gavage. […] On Days 33, 36, 39, 42, and 45, all animals were photographed under isoflurane anesthesia to assess disease severity.

[4] = system: murine model of sclerodermatous chronic graft-versus-host disease (GVHD); assay: Example 4: murine model of sclerodermatous chronic GVHD, ibrutinib and rilzabrutinib; type: in vivo, mouse; conditions: for animals that did not display progressive disease by Day 56 (standard GVHD scale): vehicle 9%; for lung sum and individual component histopathology scores vs vehicle: ibrutinib 12.5 and 25 mg/kg (Groups 4, 5), rilzabrutinib 20 and 40 mg/kg (Groups 6, 7), not statistically significant
Text: Animals were acclimatized for at least three days prior to study commencement.
Sclerodermatous chronic GVHD was induced in C57Bl/6 (CD45.1) mice using a single acute dose of 8.5 Gy of TBI on Day −1. […] The BM cells were isolated using standard flushing practices. […] Additionally, following TBI on Day −1 and up to Day 8, all animals were given supplemental high calorie highly palatable food in a dish on the bottom of the cage. Following transfer on Day 0, and then again as needed, all animals were given 1 mL/animal/day of supplemental fluids (warmed ringers solution) via subcutaneous injection. An additional 1 mL fluid may have been given in the pm on an as needed basis.
Ibrutinib. Ibrutinib was formulated with vehicle (0.5% MC).
Animals were treated twice daily on Days 21-55.
Animals in Groups 4 and 5 were administered ibrutinib for the first/AM dose and vehicle for the last/PM dose each day of dosing.
The modified GVHD score for scGVHD was based on 5 criteria: percentage of weight change (0-4), posture (hunching) (0-3), activity (0-3), fur texture (0-4), and skin integrity (0-4) (maximum index=18). […] Animals that appeared to be in pain were administered buprenorphine BID, as needed.
Progression-free survival was defined as an increase in GVHD Score of […] in comparison to Day 21 GVHD Score (standard or modified).
Fixed lung and skin samples were embedded in paraffin, sectioned at 5 microns, and slides stained with hematoxylin and eosin (H&E). One slide per block was sectioned and stained with hematoxylin and eosin (H&E). All slides were evaluated and scored with light microscopy by a board-certified veterinary pathologist.
Parametric data (weight change) were evaluated using one-way ANOVA with Dunnett's multiple comparisons test to compare all groups to the vehicle control group. Non-parametric data (GVHD scores) were analyzed with Kruskal-Wallis with Dunn's post-hoc test. All statistical analyses were performed using GraphPad Prism 8.4.3 Software (La Jolla, CA). Statistical significance was achieved when p<0.05.
Skin and Lung Histopathology. […] One slide per block was sectioned and stained with H&E. All slides were evaluated and scored with light microscopy by a board-certified veterinary pathologist. […] Lung range: 0-10; skin range: 0-30.
Dermal Thickness Measurements. Using H&E-stained slides, the dermis was measured (μm) in five areas across the tissue, with a mean calculated for each sample. Measurements were performed from epidermal basement membrane to the most superficial border of dermal collagen with subcuticular adipose. These measurements were only performed in areas of non-tangentially sectioned tissue, free of histologic artifacts, and with an intact epidermis.
Statistical Analysis. Data are presented as mean±standard error of the mean (SEM). Semi-quantitative sum and component histopathology scores were analyzed (GraphPad Prism) by non-parametric ANOVA (Kruskal-Wallis H test) with Dunn's multiple comparison post-hoc tests; dermal measurements were analyzed by one-way ANOVA with post-hoc Tukey tests as appropriate. Significance was set at p<0.05 for all tests.

[5] = cited from earlier work
[6] = dose groups not distinguished in the legend

For `CC(C)(C=C(C#N)C(=O)N1CCC[C@@H](n2nc(-c3ccc(Oc4ccccc4)cc3F)c3c(N)ncnc32)C1)N1CCN(C2COC2)CC1` [rilzabrutinib, (R)-2-[3-[4-amino-3-(2-fluoro-4-phenoxy-phenyl)pyrazolo[3,4-d]pyrimidin-1-yl]piperidine-1-carbonyl]-4-methyl-4-[4-(oxetan-3-yl)piperazin-1-yl]pent-2-enenitrile], the “standard GVHD score, death score carried, vs vehicle” value ([1]; Groups 4-8, rilzabrutinib 40 mg/kg BID (Group 6)) was “trend of lower standard GVHD scores”, the survival [1] was “survived to the conclusion of the study” and the IC50 ([2]; Homo sapiens, B-cell, dose-response 10 μM to 0.00017 μM, read-out: IC50 of inhibition of B-cell activation in whole blood) was 9.5 nM. The “disease severity (GVHD scores, total GVHD burden AUC)” value ([3]; rilzabrutinib 20 and 40 mg/kg BID PO, Days 21-55) was “dose-dependent, with a greater reduction in disease severity observed at the higher 40 mg/kg dose”, the “body weight change (AUC Day 0-56) vs vehicle” value ([4]; 20 mg/kg BID (Group 6)) was “notably more weight gain” and the “body weight change, death weight carried, vs vehicle” value ([4]; 20 mg/kg BID (Group 6)) was “trend of increased weight gain”. The “modified GVHD score (AUC) vs vehicle” value ([4]; 20 mg/kg BID (Group 6)) was “notably lower modified GVHD scores”, the “modified GVHD score, death score carried: trend of lowered scores vs vehicle” value ([4]; 20 mg/kg BID (Group 6)) was “dampened after adjusting for survivor bias” and the “standard GVHD score (AUC) vs vehicle” value ([4]; 20 mg/kg BID (Group 6)) was “notably lower standard GVHD scores”. For the same compound, the “standard GVHD score, death score carried: trend of lowered scores vs vehicle” value ([4]; 20 mg/kg BID (Group 6)) was “dampened after adjusting for survivor bias”, the “dermal thickness (H&E)” value ([4]; 20 mg/kg BID (Group 6), among-group p=0.3) was “small reduction in mean thickness” and the “animals that did not display progressive disease by Day 56 (standard GVHD scale)” value ([4]; 20 mg/kg BID (Group 6)) was 30%. For the same compound, the survival ([4]; 20 mg/kg BID PO, Days 21-55 (Group 6), vehicle 82%) was 80%, the “modified GVHD score (AUC) vs vehicle” value ([4]; 40 mg/kg BID (Group 7)) was “notably lower modified GVHD scores” and the “modified GVHD score, death score carried: trend of lowered scores vs vehicle” value ([4]; 40 mg/kg BID (Group 7)) was “dampened after adjusting for survivor bias”. The “standard GVHD score (AUC) vs vehicle” value ([4]; 40 mg/kg BID (Group 7)) was “notably lower standard GVHD scores”, the “standard GVHD score, death score carried: trend of lowered scores vs vehicle” value ([4]; 40 mg/kg BID (Group 7)) was “dampened after adjusting for survivor bias” and the “dermal fibrosis score vs vehicle” value ([4]; 40 mg/kg BID (Group 7), p=0.09) was “statistical trend toward lowered scores”. The “animals that did not display progressive disease by Day 56 (standard GVHD scale)” value ([4]; 40 mg/kg BID (Group 7)) was 10%, the survival ([4]; 40 mg/kg BID PO, Days 21-55 (Group 7), vehicle 82%) was 90% and the “dermal thickness (FIG. 11 legend)” value [4, 6] was “slight reduction in dermal thickness”. For the same compound, the “skin sum histopathology score (FIG. 10A legend)” value [4, 6] was “Slightly lowered sum scores”, the “skin sum histopathology score vs vehicle” value ([4]; either dose, 20 and 40 mg/kg BID (Groups 6 and 7)) was “lowered sum scores” and the “lung sum and individual component histopathology scores vs vehicle” value [4] was “Small reductions”. For the same compound, the “lung sum and individual component histopathology scores vs vehicle” value ([4]; listed as rilzabrunitib) was “slight reductions in sum histopathology scores”.

With `CC(C)NC(=O)COc1cccc(-c2nc(Nc3ccc4[nH]ncc4c3)c3ccccc3n2)c1` [belumosudil, 2-{3-[4-(1H-indazol-5-ylamino)-2-quinazolinyl]phenoxy}-N-(propan-2-yl) acetamide] the survival [1] was 80%, the “activated B cells (CD69 positive)” value ([2]; 10 μM compound, whole blood, anti-CD79b alone 73.4%) was 82.4% and the “inhibition of B-cell activation in whole blood (dose-response graph)” value ([2]; 10 μM to 0.00017 μM) was “did not inhibit”. The belumosudil exposure ([5]; coadministration with proton pump inhibitors) was “decreases belumosudil exposure” and the belumosudil exposure ([5]; coadministration with strong CYP3A inducers) was “decreases belumosudil exposure”.

For `C=CC(=O)N1CCC[C@@H](n2nc(-c3ccc(Oc4ccccc4)cc3)c3c(N)ncnc32)C1` [ibrutinib, 1-[(3R)-3-[4-amino-3-(4-phenoxyphenyl)-1H-pyrazolo[3,4-d]pyrimidin-1-yl]-1-piperidinyl]-2-propen-1-one, reference compound], the survival [1] was 90%, the GVHD scores ([3]; ibrutinib 25 mg/kg PO AM dose, Days 21-55, vs vehicle) was “numerical reduction in GVHD scores” and the “body weight change (AUC Day 0-56) vs vehicle” value ([4]; 12.5 mg/kg (Group 4)) was “notably more weight gain”. The “body weight change, death weight carried, vs vehicle” value ([4]; 12.5 mg/kg (Group 4)) was “trend of increased weight gain”, the “animals that did not display progressive disease by Day 56 (standard GVHD scale)” value ([4]; 12.5 mg/kg (Group 4)) was 10% and the survival ([4]; 12.5 mg/kg PO AM dose, Days 21-55 (Group 4), to Day 56) was “survived until the end of the study”. The “modified GVHD score (AUC) vs vehicle” value ([4]; 25 mg/kg (Group 5)) was “notably lower modified GVHD scores”, the “modified GVHD score, death score carried: trend of lowered scores vs vehicle” value ([4]; 25 mg/kg (Group 5)) was “dampened after adjusting for survivor bias” and the “skin sum histopathology score vs vehicle” value ([4]; 25 mg/kg (Group 5)) was “lowered sum scores”. For the same compound, the “standard GVHD score (AUC) vs vehicle” value ([4]; 25 mg/kg (Group 5)) was “notably lower standard GVHD scores”, the “standard GVHD score, death score carried: trend of lowered scores vs vehicle” value ([4]; 25 mg/kg (Group 5)) was “dampened after adjusting for survivor bias” and the “dermal fibrosis score vs vehicle” value ([4]; 25 mg/kg (Group 5), p=0.02) was “statistically lowered dermal fibrosis scores”. For the same compound, the “animals that did not display progressive disease by Day 56 (standard GVHD scale)” value ([4]; 25 mg/kg (Group 5)) was 40%, the survival ([4]; 25 mg/kg PO AM dose, Days 21-55 (Group 5), vehicle 82%) was 90% and the “skin sum histopathology score (FIG. 10A legend)” value [4, 6] was “Slightly lowered sum scores”. For the same compound, the “lung sum and individual component histopathology scores vs vehicle” value ([4]; listed as ibrunitib) was “Small reductions; also recorded: slight reductions in sum histopathology scores”.
